{"source": "the supplement of paper PMC6045584", "key": {"[1]": {"compound": "CC(=O)NCC(=O)N1[C@@H]2CC[C@H]1c1ccc(Nc3ncc(C(F)(F)F)c(NC4CCC4)n3)cc12", "experiment": "surviving fraction relative to DMSO-only wells; higher = less growth inhibition", "details": "exposure time: 5 days", "procedure,_shortened": "(§1)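 Viability values are CellTiter-Glo luminescence readings, given as surviving fraction against the median of DMSO-only wells. The readings were taken after 10 minutes at room temperature, following five days of continuous exposure to inhibitors at 0.5, 1, 5, 10, 50, 100, 500 and 1000 nM that began 24 hours after log-phase tumour cell lines were seeded at 250–500 cells per well in 384-well plates. Every line was screened three times and kept only if replicate Pearson r >0.7 and median Z' >0.3.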"}, "CELECOXIB": {"compound": "Cc1ccc(-c2cc(C(F)(F)F)nn2-c2ccc(S(N)(=O)=O)cc2)cc1 [CELECOXIB]", "experiment": "surviving fraction relative to DMSO-only wells; higher = less growth inhibition", "details": "exposure time: 5 days", "procedure,_shortened": "as §1"}, "GEFITINIB": {"compound": "COc1cc2ncnc(Nc3ccc(F)c(Cl)c3)c2cc1OCCCN1CCOCC1 [GEFITINIB]", "experiment": "surviving fraction relative to DMSO-only wells; higher = less growth inhibition", "details": "exposure time: 5 days", "procedure,_shortened": "as §1"}, "YM155": {"compound": "COCC[n+]1c2c(n(Cc3cnccn3)c1C)C(=O)c1ccccc1C2=O [YM155]", "experiment": "surviving fraction relative to DMSO-only wells; higher = less growth inhibition", "details": "exposure time: 5 days", "procedure,_shortened": "as §1"}, "CAMPTOTHECIN": {"compound": "CC[C@@]1(O)C(=O)OCc2c1cc1n(c2=O)Cc2cc3ccccc3nc2-1 [CAMPTOTHECIN]", "experiment": "surviving fraction relative to DMSO-only wells; higher = less growth inhibition", "details": "exposure time: 5 days", "procedure,_shortened": "as §1"}, "OSI-906": {"compound": "C[C@]1(O)C[C@@H](c2nc(-c3ccc4ccc(-c5ccccc5)nc4c3)c3c(N)nccn32)C1 [OSI-906]", "experiment": "surviving fraction relative to DMSO-only wells; higher = less growth inhibition", "details": "exposure time: 5 days", "procedure,_shortened": "as §1"}, "[2]": {"compound": "CC(=O)c1c(C)c2cnc(Nc3ccc(N4CCNCC4)cn3)nc2n(C2CCCC2)c1=O", "experiment": "surviving fraction relative to DMSO-only wells; higher = less growth inhibition", "details": "exposure time: 5 days", "procedure,_shortened": "as §1"}, "CARBOPLATIN": {"compound": "O=C(O)C1(C(=O)O)CCC1.[NH2-].[NH2-].[Pt+2] [CARBOPLATIN]", "experiment": "surviving fraction relative to DMSO-only wells; higher = less growth inhibition", "details": "exposure time: 5 days", "procedure,_shortened": "as §1"}, "PACLITAXEL [3]": {"compound": "T1, CC(=O)O[C@H]1C(=O)[C@@]2(C)[C@H]([C@H](OC(=O)c3ccccc3)[C@]3(O)C[C@H](OC(=O)[C@H](O)[C@@H](NC(=O)c4ccccc4)c4ccccc4)C(C)=C1C3(C)C)[C@]1(OC(C)=O)CO[C@@H]1C[C@@H]2O [PACLITAXEL]", "experiment": "surviving fraction relative to DMSO-only wells; higher = less growth inhibition", "details": "exposure time: 5 days", "procedure,_shortened": "as §1"}, "[4]": {"compound": "CC(=O)NCC(=O)N1[C@@H]2CC[C@H]1c1ccc(Nc3ncc(C(F)(F)F)c(NC4CCC4)n3)cc12", "experiment": "area under dose-response curve of surviving fraction (unscaled, Aref=0) (surviving fraction x log10(nM)); higher = more resistant", "details": "exposure time: 5 days; dose range 0.5-1000 nM", "procedure,_shortened": "(§2)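 Inhibitor was applied to tumour cell lines at eight concentrations (0.5 to 1000 nM) for five days in 384-well plates. Luminescence from CellTiter-Glo, scaled to DMSO-only wells, gave surviving fractions in three screens per line, and these were fitted by 3-parameter logistic regression with the drc R package. The area under the curve is an unscaled activity area. Aref was 0, and dose was on a log10 scale.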"}, "[5]": {"compound": "CC(=O)c1c(C)c2cnc(Nc3ccc(N4CCNCC4)cn3)nc2n(C2CCCC2)c1=O", "experiment": "area under dose-response curve of surviving fraction (unscaled, Aref=0) (surviving fraction x log10(nM)); higher = more resistant", "details": "exposure time: 5 days; dose range 0.5-1000 nM", "procedure,_shortened": "as §2"}, "PACLITAXEL [6]": {"compound": "T1, PACLITAXEL", "experiment": "area under dose-response curve of surviving fraction (unscaled, Aref=0) (surviving fraction x log10(nM)); higher = more resistant", "details": "exposure time: 5 days; dose range 0.5-1000 nM", "procedure,_shortened": "as §2"}}, "note": "± gives the standard deviation of the averaged measurements."}
{"test system": "SG28 HEADNECK", "values": [{"measurement": "surviving fraction", "setting": "[1]; 0.5 nM", "result": "1.06 ± 0.12"}, {"measurement": "surviving fraction", "setting": "[1]; 1 nM", "result": "1.03 ± 0.036"}, {"measurement": "surviving fraction", "setting": "[1]; 5 nM", "result": "0.972 ± 0.15"}, {"measurement": "surviving fraction", "setting": "[1]; 10 nM", "result": "0.991 ± 0.13"}, {"measurement": "surviving fraction", "setting": "[1]; 50 nM", "result": "0.949 ± 0.11"}, {"measurement": "surviving fraction", "setting": "[1]; 100 nM", "result": "0.828 ± 0.015"}, {"measurement": "surviving fraction", "setting": "[1]; 500 nM", "result": "0.682 ± 0.048"}, {"measurement": "surviving fraction", "setting": "[1]; 1000 nM", "result": "0.601 ± 0.075"}, {"measurement": "surviving fraction", "setting": "CELECOXIB; 0.5 nM", "result": "1.19 ± 0.26"}, {"measurement": "surviving fraction", "setting": "CELECOXIB; 1 nM", "result": "1.19 ± 0.04"}, {"measurement": "surviving fraction", "setting": "CELECOXIB; 5 nM", "result": "1.24 ± 0.099"}, {"measurement": "surviving fraction", "setting": "CELECOXIB; 10 nM", "result": "1.2 ± 0.13"}, {"measurement": "surviving fraction", "setting": "CELECOXIB; 50 nM", "result": "1.2 ± 0.18"}, {"measurement": "surviving fraction", "setting": "CELECOXIB; 100 nM", "result": "1.233 ± 0.0057"}, {"measurement": "surviving fraction", "setting": "CELECOXIB; 500 nM", "result": "1.16 ± 0.027"}, {"measurement": "surviving fraction", "setting": "CELECOXIB; 1000 nM", "result": "1.29 ± 0.059"}, {"measurement": "surviving fraction", "setting": "GEFITINIB; 0.5 nM", "result": "1.14 ± 0.071"}, {"measurement": "surviving fraction", "setting": "GEFITINIB; 1 nM", "result": "1.2 ± 0.037"}, {"measurement": "surviving fraction", "setting": "GEFITINIB; 5 nM", "result": "1.06 ± 0.075"}, {"measurement": "surviving fraction", "setting": "GEFITINIB; 10 nM", "result": "1.03 ± 0.035"}, {"measurement": "surviving fraction", "setting": "GEFITINIB; 50 nM", "result": "0.758 ± 0.069"}, {"measurement": "surviving fraction", "setting": "GEFITINIB; 100 nM", "result": "0.679 ± 0.033"}, {"measurement": "surviving fraction", "setting": "GEFITINIB; 500 nM", "result": "0.501 ± 0.059"}, {"measurement": "surviving fraction", "setting": "GEFITINIB; 1000 nM", "result": "0.504 ± 0.016"}, {"measurement": "surviving fraction", "setting": "YM155; 0.5 nM", "result": "1.07 ± 0.083"}, {"measurement": "surviving fraction", "setting": "YM155; 1 nM", "result": "1.17 ± 0.066"}, {"measurement": "surviving fraction", "setting": "YM155; 5 nM", "result": "0.882 ± 0.025"}, {"measurement": "surviving fraction", "setting": "YM155; 10 nM", "result": "0.631 ± 0.05"}, {"measurement": "surviving fraction", "setting": "YM155; 50 nM", "result": "0.105 ± 0.005"}, {"measurement": "surviving fraction", "setting": "YM155; 100 nM", "result": "0.058 ± 0.013"}, {"measurement": "surviving fraction", "setting": "YM155; 500 nM", "result": "0.0285 ± 0.00071"}, {"measurement": "surviving fraction", "setting": "YM155; 1000 nM", "result": "0.033 ± 0.0014"}, {"measurement": "surviving fraction", "setting": "CAMPTOTHECIN; 0.5 nM", "result": "0.21 ± 0.068"}, {"measurement": "surviving fraction", "setting": "CAMPTOTHECIN; 1 nM", "result": "0.771 ± 0.12"}, {"measurement": "surviving fraction", "setting": "CAMPTOTHECIN; 5 nM", "result": "0.579 ± 0.056"}, {"measurement": "surviving fraction", "setting": "CAMPTOTHECIN; 10 nM", "result": "0.696 ± 0.099"}, {"measurement": "surviving fraction", "setting": "CAMPTOTHECIN; 50 nM", "result": "0.337 ± 0.015"}, {"measurement": "surviving fraction", "setting": "CAMPTOTHECIN; 100 nM", "result": "0.55 ± 0.044"}, {"measurement": "surviving fraction", "setting": "CAMPTOTHECIN; 500 nM", "result": "0.211 ± 0.04"}, {"measurement": "surviving fraction", "setting": "CAMPTOTHECIN; 1000 nM", "result": "0.102 ± 0.0035"}, {"measurement": "surviving fraction", "setting": "OSI-906; 0.5 nM", "result": "0.829 ± 0.16"}, {"measurement": "surviving fraction", "setting": "OSI-906; 1 nM", "result": "0.78 ± 0.098"}, {"measurement": "surviving fraction", "setting": "OSI-906; 5 nM", "result": "0.769 ± 0.16"}, {"measurement": "surviving fraction", "setting": "OSI-906; 10 nM", "result": "0.792 ± 0.02"}, {"measurement": "surviving fraction", "setting": "OSI-906; 50 nM", "result": "0.88 ± 0.06"}, {"measurement": "surviving fraction", "setting": "OSI-906; 100 nM", "result": "0.867 ± 0.089"}, {"measurement": "surviving fraction", "setting": "OSI-906; 500 nM", "result": "0.692 ± 0.021"}, {"measurement": "surviving fraction", "setting": "OSI-906; 1000 nM", "result": "0.547 ± 0.034"}, {"measurement": "surviving fraction", "setting": "[2]; 0.5 nM", "result": "1.1 ± 0.069"}, {"measurement": "surviving fraction", "setting": "[2]; 1 nM", "result": "1.1 ± 0.13"}, {"measurement": "surviving fraction", "setting": "[2]; 5 nM", "result": "1.08 ± 0.15"}, {"measurement": "surviving fraction", "setting": "[2]; 10 nM", "result": "0.955 ± 0.05"}, {"measurement": "surviving fraction", "setting": "[2]; 50 nM", "result": "1.02 ± 0.16"}, {"measurement": "surviving fraction", "setting": "[2]; 100 nM", "result": "1.02 ± 0.13"}, {"measurement": "surviving fraction", "setting": "[2]; 500 nM", "result": "1 ± 0.058"}, {"measurement": "surviving fraction", "setting": "[2]; 1000 nM", "result": "1.07 ± 0.051"}, {"measurement": "surviving fraction", "setting": "CARBOPLATIN; 0.5 nM", "result": "1.23 ± 0.042"}, {"measurement": "surviving fraction", "setting": "CARBOPLATIN; 1 nM", "result": 1.1}, {"measurement": "surviving fraction", "setting": "CARBOPLATIN; 5 nM", "result": "1.07 ± 0.065"}, {"measurement": "surviving fraction", "setting": "CARBOPLATIN; 10 nM", "result": "0.97 ± 0.0014"}, {"measurement": "surviving fraction", "setting": "CARBOPLATIN; 50 nM", "result": "1.024 ± 0.0035"}, {"measurement": "surviving fraction", "setting": "CARBOPLATIN; 100 nM", "result": "1 ± 0.084"}, {"measurement": "surviving fraction", "setting": "CARBOPLATIN; 500 nM", "result": "1.11 ± 0.034"}, {"measurement": "surviving fraction", "setting": "CARBOPLATIN; 1000 nM", "result": "1.18 ± 0.19"}, {"measurement": "surviving fraction", "setting": "PACLITAXEL [3]; 0.5 nM", "result": "1.05 ± 0.086"}, {"measurement": "surviving fraction", "setting": "PACLITAXEL [3]; 1 nM", "result": "0.903 ± 0.13"}, {"measurement": "surviving fraction", "setting": "PACLITAXEL [3]; 5 nM", "result": "0.645 ± 0.033"}, {"measurement": "surviving fraction", "setting": "PACLITAXEL [3]; 10 nM", "result": "0.635 ± 0.051"}, {"measurement": "surviving fraction", "setting": "PACLITAXEL [3]; 50 nM", "result": "0.463 ± 0.072"}, {"measurement": "surviving fraction", "setting": "PACLITAXEL [3]; 100 nM", "result": "0.505 ± 0.0085"}, {"measurement": "surviving fraction", "setting": "PACLITAXEL [3]; 500 nM", "result": "0.458 ± 0.02"}, {"measurement": "surviving fraction", "setting": "PACLITAXEL [3]; 1000 nM", "result": "0.487 ± 0.043"}, {"measurement": "area under dose-response curve", "setting": "[4]", "result": 2.96}, {"measurement": "area under dose-response curve", "setting": "[5]", "result": 3.43}, {"measurement": "area under dose-response curve", "setting": "PACLITAXEL [6]", "result": 2.04}]}
